Measured values from ChEMBL document CHEMBL1126536, “Synthesis and antimalarial evaluation of 2,3,5-trioxabicyclo[2.2.3]nonane, a model for the putative pharmacophore of artemisinin” (Bioorg Med Chem Lett, 1993).
In brackets after ≈: the same amount, converted by molar mass.

What was measured:
Plasmodium falciparum [1] = assay: (§1) Inhibitory concentration against chloroquine-sensitive Plasmodium falciparum D-8; type: functional
Plasmodium falciparum [2] = assay: as §1; type: functional, organism-based
Plasmodium falciparum [3] = assay: (§2) Inhibitory concentration against […] Plasmodium falciparum W-2; type: functional
Plasmodium falciparum [4] = assay: Inhibitory concentration against […] Plasmodium falciparum W2; type: functional
Plasmodium falciparum [5] = assay: as §2; type: functional, organism-based
[6] = Plasmodium falciparum, read-out: IC10
[7] = Plasmodium falciparum, read-out: IC90
[8] = Plasmodium falciparum, read-out: IC50

C1CC2COC(C1)OO2 (stereo unspecified)
IC10 (Plasmodium falciparum [1]; [6]): 1.34 µg/mL (≈ 10.3 µM)
IC90 (Plasmodium falciparum [1]; [7]): 4.47 µg/mL (≈ 34.3 µM)
IC50 (Plasmodium falciparum [2]; [8]): 2.45 µg/mL (≈ 18.8 µM)

COC1CCCC(OO)CO1 (single isomer, unassigned; isomer A)
IC10 (Plasmodium falciparum [3]): 3.33249 µg/mL (≈ 20.5 µM)
IC90 (Plasmodium falciparum [4]; [7]): 12.8 µg/mL (≈ 78.8 µM)
IC10 (Plasmodium falciparum [1]; [6]): 2.46 µg/mL (≈ 15.2 µM)
IC90 (Plasmodium falciparum [1]; [7]): 22.8 µg/mL (≈ 141 µM)
IC50 (Plasmodium falciparum [5]): 6.52488 µg/mL (≈ 40.2 µM)
IC50 (Plasmodium falciparum [2]; [8]): 7.49 µg/mL (≈ 46.2 µM)

COC1CCCC(OO)CO1 (stereo in doubt)
IC10 (Plasmodium falciparum [3]): 11.4131 µg/mL (≈ 70.4 µM)
IC90 (Plasmodium falciparum [4]): 20.93322 µg/mL (≈ 129 µM)
IC10 (Plasmodium falciparum [1]): 2.65375 µg/mL (≈ 16.4 µM)
IC90 (Plasmodium falciparum [1]): 38.08448 µg/mL (≈ 235 µM)
IC50 (Plasmodium falciparum [5]): 15.45681 µg/mL (≈ 95.3 µM)
IC50 (Plasmodium falciparum [2]): 10.0532 µg/mL (≈ 62 µM)

C[C@@H]1CC[C@H]2[C@@H](C)C(=O)O[C@@H]3O[C@@]4(C)CC[C@@H]1[C@]32OO4 [ARTEMISININ]
IC10 (Plasmodium falciparum [3]; [6]): 0.00049 µg/mL (≈ 0.00174 µM)
IC90 (Plasmodium falciparum [4]; [7]): 0.00105 µg/mL (≈ 0.00372 µM)
IC10 (Plasmodium falciparum [1]; [6]): 0.00032 µg/mL (≈ 0.00113 µM)
IC90 (Plasmodium falciparum [1]; [7]): 0.00213 µg/mL (≈ 0.00754 µM)
IC50 (Plasmodium falciparum [5]; [8]): 0.00072 µg/mL (≈ 0.00255 µM)
IC50 (Plasmodium falciparum [2]; [8]): 0.00083 µg/mL (≈ 0.00294 µM)

CCN(CC)CCCC(C)Nc1ccnc2cc(Cl)ccc12 (stereo unspecified) [CHLOROQUINE]
IC10 (Plasmodium falciparum [3]; [6]): 0.0527 µg/mL (≈ 0.165 µM)
IC90 (Plasmodium falciparum [4]; [7]): 0.0931 µg/mL (≈ 0.291 µM)
IC10 (Plasmodium falciparum [1]; [6]): 0.00201 µg/mL (≈ 0.00628 µM)
IC90 (Plasmodium falciparum [1]; [7]): 0.00361 µg/mL (≈ 0.0113 µM)

OC(c1cc(C(F)(F)F)nc2c(C(F)(F)F)cccc12)C1CCCCN1 (stereo unspecified) [MEFLOQUINE]
IC10 (Plasmodium falciparum [3]; [6]): 0.00117 µg/mL (≈ 0.00309 µM)
IC90 (Plasmodium falciparum [4]; [7]): 0.00373 µg/mL (≈ 0.00986 µM)
IC10 (Plasmodium falciparum [1]; [6]): 0.00122 µg/mL (≈ 0.00322 µM)
IC90 (Plasmodium falciparum [1]; [7]): 0.0385 µg/mL (≈ 0.102 µM)
IC50 (Plasmodium falciparum [5]; [8]): 0.00209 µg/mL (≈ 0.00552 µM)
IC50 (Plasmodium falciparum [2]; [8]): 0.00686 µg/mL (≈ 0.0181 µM)
